Structures are written as SMILES.

One assay addresses T1, hα2A receptor (Homo sapiens, UniProt P08913).
T1 construct: expressed in transfected cells
T1 sequence (P08913 1-465): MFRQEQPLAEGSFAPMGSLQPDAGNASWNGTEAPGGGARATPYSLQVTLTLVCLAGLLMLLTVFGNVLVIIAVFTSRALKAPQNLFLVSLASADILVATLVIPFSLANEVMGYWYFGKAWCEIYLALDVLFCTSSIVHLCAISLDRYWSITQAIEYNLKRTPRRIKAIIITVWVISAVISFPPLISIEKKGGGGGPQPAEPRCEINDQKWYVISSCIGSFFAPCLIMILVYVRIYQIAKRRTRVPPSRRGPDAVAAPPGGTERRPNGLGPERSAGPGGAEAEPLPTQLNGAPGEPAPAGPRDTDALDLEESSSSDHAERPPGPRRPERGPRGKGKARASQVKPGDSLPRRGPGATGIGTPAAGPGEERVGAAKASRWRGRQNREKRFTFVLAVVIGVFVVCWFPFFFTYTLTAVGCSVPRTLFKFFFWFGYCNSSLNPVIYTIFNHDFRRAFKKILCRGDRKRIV
The experiment in a line: Radioligand binding experiment for hα2A receptor ([3H]-raulwolscine, CHO cell membranes). The settings on record: [3H]raulwolscine 1 nM, membranes of CHO cells transfected with human α2A receptor; read-out: h-α2A pIC50 (converted).

A further assay deals with T2, hα2C receptor (Homo sapiens, UniProt P18825).
T2 construct: expressed in transfected cells
T2 sequence (P18825 1-462): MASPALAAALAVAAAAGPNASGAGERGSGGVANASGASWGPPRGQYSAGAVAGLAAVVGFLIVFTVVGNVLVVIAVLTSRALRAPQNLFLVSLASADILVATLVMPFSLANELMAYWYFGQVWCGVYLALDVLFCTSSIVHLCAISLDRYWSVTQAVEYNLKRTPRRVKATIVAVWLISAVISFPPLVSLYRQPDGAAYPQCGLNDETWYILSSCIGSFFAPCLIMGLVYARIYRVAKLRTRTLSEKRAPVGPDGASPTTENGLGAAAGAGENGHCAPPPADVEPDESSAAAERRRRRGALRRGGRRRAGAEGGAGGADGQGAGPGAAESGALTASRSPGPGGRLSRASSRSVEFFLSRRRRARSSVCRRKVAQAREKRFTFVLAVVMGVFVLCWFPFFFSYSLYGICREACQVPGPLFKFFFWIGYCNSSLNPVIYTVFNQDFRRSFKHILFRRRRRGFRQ
Kind of assay: Radioligand binding experiment for α2C-adrenoceptor ([3H]-raulwolscine, CHO cell membranes). Conditions: [3H]raulwolscine 1 nM, membranes of CHO cells transfected with human α2C receptor; read-out: h-α2C pIC50 (converted).

A further assay has as its target T3, 5HT-Transporter (Homo sapiens, UniProt P31645).
T3 construct: Human platelet membranes (Oceanix Biosciences Corporation, Hanover, Md., USA) were thawed; tissue Oceanix Biosciences Corporation; host or cells: human platelet membranes
Kind of assay: Binding experiment for the 5HT-transporter ([3H]paroxetine, human platelet membranes). The settings on record: [3H]paroxetine 0.5 nM, read-out: h-5HTT pIC50 (converted).

T3 sequence (P31645 whole entry): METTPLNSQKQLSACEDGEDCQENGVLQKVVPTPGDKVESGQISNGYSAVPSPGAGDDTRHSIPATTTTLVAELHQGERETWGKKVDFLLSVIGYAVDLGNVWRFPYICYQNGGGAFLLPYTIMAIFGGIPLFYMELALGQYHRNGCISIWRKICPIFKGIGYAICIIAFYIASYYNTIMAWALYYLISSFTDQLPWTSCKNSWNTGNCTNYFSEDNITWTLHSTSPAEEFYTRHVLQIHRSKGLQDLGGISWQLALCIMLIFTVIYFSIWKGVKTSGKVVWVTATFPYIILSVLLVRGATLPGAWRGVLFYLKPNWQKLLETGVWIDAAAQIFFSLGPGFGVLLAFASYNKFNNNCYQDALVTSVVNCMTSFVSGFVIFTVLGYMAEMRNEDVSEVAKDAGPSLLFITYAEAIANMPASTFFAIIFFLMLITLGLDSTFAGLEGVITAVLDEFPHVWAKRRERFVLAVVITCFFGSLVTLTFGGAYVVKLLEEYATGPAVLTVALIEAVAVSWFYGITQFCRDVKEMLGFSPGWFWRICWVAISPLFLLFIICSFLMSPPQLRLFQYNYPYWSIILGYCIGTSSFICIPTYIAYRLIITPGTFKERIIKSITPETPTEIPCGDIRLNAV

`COCCCn1ccnc(N2CCN(CCOc3ccc(F)cc3)CC2)c1=O` [Compound 9-1]: the IC50 on hα2A receptor is 1260 nM; at hα2C receptor it was 1000 nM; at 5HT-Transporter, above 10000 nM.
Regarding `O=c1c(N2CCN(CCOc3ccc(F)cc3)CC2)nccn1Cc1ccc(Cl)s1` [Compound 12-2], the IC50 is 200 nM at hα2A receptor, 79.4 nM on hα2C receptor and 6310 nM on 5HT-Transporter.
Regarding `O=C1c2ccccc2C(=O)N1CCCn1ccnc(N2CCN(CCOc3ccc(F)cc3)CC2)c1=O` [Compound 8-2], the IC50 was 100 nM at hα2A receptor, 39.8 nM at hα2C receptor and 631 nM at 5HT-Transporter.
As for `O=c1c(N2CCN(CCOc3ccc(F)cc3)CC2)nccn1Cc1ccc2ccccc2c1` [Compound 11-8], the IC50 on hα2A receptor is 126 nM; on hα2C receptor it was 126 nM; on 5HT-Transporter, 2000 nM.

The values above are taken from patent publication US20090281099A1, “SUBSTITUTED PYRAZINONE DERIVATIVES FOR USE AS A MEDICINE” (priority 2006, published 2009).
